# Results reported in US20210254056A1, “IDENTIFICATION AND TARGETED MODULATION OF GENE SIGNALING NETWORKS” (CAMP4 THERAPEUTICS CORPORATION, priority 2017, published 2021).
# Where a name gives a salt, the structure may show the parent alone.
# Tested on: hepatocytes
# Test: RNA-seq of hepatocytes treated with Phase III failure compounds
# Conditions: for significant modulation of expression of disease genes: q≤0.05, genes in the value or listed in the block; for Number (#) of genes having significantly changed expression: Phase III failure compounds, significance: FPKM≥0.5, log 2(fold-change)≥1, q-value≥0.05 (so in the source)
# Experimental: RNA-seq was performed to determine the effects of the compounds on hepatocytes.
# Significance was determined by the criteria of FPKM≥0.5, a log 2(fold-change)≥1, and a […].
structure (smiles),measurement,setting,value
COc1cc(Nc2ncc(F)c(Nc3ccc4c(n3)N(COP(=O)(O)O)C(=O)C(C)(C)O4)n2)cc(OC)c1OC [fostamatinib],significant modulation of expression of disease genes,"RNA-seq, hepatocytes",significantly (q≤0.05) modulate expression
same,effect on disease gene expression,"RNA-seq, hepatocytes",effect on expression of too many disease genes
same,RNA-seq results: A1BG expression,"gene A1BG, hepatocytes",0.01
same,RNA-seq results: AGTR1 expression,"gene AGTR1, hepatocytes",0.25
same,RNA-seq results: AGXT expression,"gene AGXT, hepatocytes",0.45
same,RNA-seq results: AHI1 expression,"gene AHI1, hepatocytes",0.39
same,RNA-seq results: AMPD3 expression,"gene AMPD3, hepatocytes",−0.90
same,RNA-seq results: AMT expression,"gene AMT, hepatocytes",−0.28
same,RNA-seq results: ANGPTL3 expression,"gene ANGPTL3, hepatocytes",0.24
same,RNA-seq results: ANKS4B expression,"gene ANKS4B, hepatocytes",0.49
same,RNA-seq results: ANKS6 expression,"gene ANKS6, hepatocytes",0.03
same,RNA-seq results: ANPEP expression,"gene ANPEP, hepatocytes",0.49
same,RNA-seq results: AOC2 expression,"gene AOC2, hepatocytes",0.64
same,RNA-seq results: APOA2 expression,"gene APOA2, hepatocytes",−0.31
same,RNA-seq results: APOA5 expression,"gene APOA5, hepatocytes",0.97
same,RNA-seq results: APOB expression,"gene APOB, hepatocytes",1.87
same,RNA-seq results: COG5 expression,"gene COG5, hepatocytes",−0.12
same,RNA-seq results: COG6 expression,"gene COG6, hepatocytes",0.18
same,RNA-seq results: COL1A1 expression,"gene COL1A1, hepatocytes",−0.09
same,RNA-seq results: COX6A1 expression,"gene COX6A1, hepatocytes",0.29
same,RNA-seq results: CP expression,"gene CP, hepatocytes",−0.16
same,RNA-seq results: CPS1 expression,"gene CPS1, hepatocytes",−0.56
same,RNA-seq results: CPT1A expression,"gene CPT1A, hepatocytes",−0.03
same,RNA-seq results: CPT2 expression,"gene CPT2, hepatocytes",0.28
same,RNA-seq results: CROT expression,"gene CROT, hepatocytes",0.19
same,RNA-seq results: CSPP1 expression,"gene CSPP1, hepatocytes",−0.09
same,RNA-seq results: CTC1 expression,"gene CTC1, hepatocytes",0.04
same,RNA-seq results: CTDSP2 expression,"gene CTDSP2, hepatocytes",−0.06
same,RNA-seq results: CTH expression,"gene CTH, hepatocytes",0.15
same,RNA-seq results: CTNS expression,"gene CTNS, hepatocytes",0.1
same,RNA-seq results: CTSF expression,"gene CTSF, hepatocytes",0.07
same,RNA-seq results: CTSK expression,"gene CTSK, hepatocytes",−0.13
same,RNA-seq results: CYB5A expression,"gene CYB5A, hepatocytes",−0.01
same,RNA-seq results: CYB5R3 expression,"gene CYB5R3, hepatocytes",0.05
same,"RNA-seq results, CYP2B6 expression","gene CYP2B6, hepatocytes",0.55
same,RNA-seq results: CYP2B6 expression,"gene CYP2B6, hepatocytes",−0.04
same,"RNA-seq results, CYP2C19 expression","gene CYP2C19, hepatocytes",0.61
same,RNA-seq results: CYP2C19 expression,"gene CYP2C19, hepatocytes",−0.79
same,"RNA-seq results, CYP2D6 expression","gene CYP2D6, hepatocytes",0.31
same,RNA-seq results: CYP2D6 expression,"gene CYP2D6, hepatocytes",−0.01
same,"RNA-seq results, CYP3A4 expression","gene CYP3A4, hepatocytes",3.59
same,RNA-seq results: CYP3A4 expression,"gene CYP3A4, hepatocytes",0.18
same,"RNA-seq results, CYP7B1 expression","gene CYP7B1, hepatocytes",0.59
same,RNA-seq results: CYP7B1 expression,"gene CYP7B1, hepatocytes",−0.27
same,RNA-seq results: CYP27A1 expression,"gene CYP27A1, hepatocytes",−0.03
same,"RNA-seq results, CYP39A1 expression","gene CYP39A1, hepatocytes",1.11
same,RNA-seq results: CYP39A1 expression,"gene CYP39A1, hepatocytes",−0.23
same,RNA-seq results: DAO expression,"gene DAO, hepatocytes",−0.06
same,RNA-seq results: DBT expression,"gene DBT, hepatocytes",−0.01
same,RNA-seq results: DCDC2 expression,"gene DCDC2, hepatocytes",−0.57
same,RNA-seq results: DCXR expression,"gene DCXR, hepatocytes",0.23
same,RNA-seq results: FABP1 expression,"gene FABP1, hepatocytes",−0.33
same,RNA-seq results: FADD expression,"gene FADD, hepatocytes",0.17
same,RNA-seq results: FAM111A expression,"gene FAM111A, hepatocytes",−0.14
same,RNA-seq results: FAM111B expression,"gene FAM111B, hepatocytes",1.04
same,RNA-seq results: FAN1 expression,"gene FAN1, hepatocytes",0.11
same,RNA-seq results: FARS2 expression,"gene FARS2, hepatocytes",−0.7
same,RNA-seq results: FASLG expression,"gene FASLG, hepatocytes",−0.31
same,RNA-seq results: FGA expression,"gene FGA, hepatocytes",−0.24
same,RNA-seq results: FGD1 expression,"gene FGD1, hepatocytes",0.24
same,RNA-seq results: FGFR2 expression,"gene FGFR2, hepatocytes",−1.3
same,RNA-seq results: FIG4 expression,"gene FIG4, hepatocytes",−0.09
same,RNA-seq results: FIS1 expression,"gene FIS1, hepatocytes",0.19
same,RNA-seq results: FTCD expression,"gene FTCD, hepatocytes",−0.37
same,RNA-seq results: FTH1 expression,"gene FTH1, hepatocytes",0.34
same,RNA-seq results: FUCA1 expression,"gene FUCA1, hepatocytes",0.04
same,RNA-seq results: FXN expression,"gene FXN, hepatocytes",−0.11
same,RNA-seq results: G6PC3 expression,"gene G6PC3, hepatocytes",0.11
same,RNA-seq results: G6PC expression,"gene G6PC, hepatocytes",−0.55
same,RNA-seq results: G6PD expression,"gene G6PD, hepatocytes",0.55
same,RNA-seq results: GALK1 expression,"gene GALK1, hepatocytes",0.19
same,RNA-seq results: GALK2 expression,"gene GALK2, hepatocytes",0.04
same,RNA-seq results: GALT expression,"gene GALT, hepatocytes",−0.13
same,RNA-seq results: GATA6 expression,"gene GATA6, hepatocytes",−0.12
same,RNA-seq results: GATM expression,"gene GATM, hepatocytes",−0.13
same,RNA-seq results: GBA expression,"gene GBA, hepatocytes",0.02
same,RNA-seq results: GBE1 expression,"gene GBE1, hepatocytes",−0.01
same,RNA-seq results: GCH1 expression,"gene GCH1, hepatocytes",0.04
same,RNA-seq results: GCKR expression,"gene GCKR, hepatocytes",−0.15
same,RNA-seq results: GCLC expression,"gene GCLC, hepatocytes",0.18
same,RNA-seq results: GOSH expression,"gene GOSH, hepatocytes",0.18
same,RNA-seq results: RRM2B,"gene RRM2B, hepatocytes",0.45
same,RNA-seq results: RSAD1,"gene RSAD1, hepatocytes",0.22
same,RNA-seq results: SAMHD1,"gene SAMHD1, hepatocytes",−0.22
same,RNA-seq results: SC5D,"gene SC5D, hepatocytes",0.22
same,RNA-seq results: SCARB1,"gene SCARB1, hepatocytes",−0.40
same,RNA-seq results: SCN9A,"gene SCN9A, hepatocytes",−0.97
same,RNA-seq results: SDCCAG8,"gene SDCCAG8, hepatocytes",0.11
same,RNA-seq results: SEPN1,"gene SEPN1, hepatocytes",−0.18
same,RNA-seq results: SERAC1,"gene SERAC1, hepatocytes",−0.05
same,RNA-seq results: SERPINA1,"gene SERPINA1, hepatocytes",0.31
same,RNA-seq results: SERPING1,"gene SERPING1, hepatocytes",0.27
same,RNA-seq results: SERPINI1,"gene SERPINI1, hepatocytes",0.67
same,RNA-seq results: SETBP1,"gene SETBP1, hepatocytes",−0.46
same,RNA-seq results: SFXN4,"gene SFXN4, hepatocytes",0.01
same,RNA-seq results: SLC10A1,"gene SLC10A1, hepatocytes",0.97
same,RNA-seq results: SLC10A3,"gene SLC10A3, hepatocytes",−0.64
same,RNA-seq results: SLC10A5,"gene SLC10A5, hepatocytes",1.23
same,RNA-seq results: SLC10A7,"gene SLC10A7, hepatocytes",−0.12
same,RNA-seq results: SLC11A2,"gene SLC11A2, hepatocytes",−0.54
same,RNA-seq results: SLC19A1,"gene SLC19A1, hepatocytes",−0.37
same,RNA-seq results: SLC19A2,"gene SLC19A2, hepatocytes",−0.01
same,RNA-seq results: SLC19A3,"gene SLC19A3, hepatocytes",0.18
same,RNA-seq results: SLC22A1,"gene SLC22A1, hepatocytes",0.16
same,RNA-seq results: SLC22A5,"gene SLC22A5, hepatocytes",−0.46
same,RNA-seq results: SLC25A1,"gene SLC25A1, hepatocytes",−0.04
same,RNA-seq results: SLC25A10,"gene SLC25A10, hepatocytes",0.24
same,RNA-seq results: SLC25A12,"gene SLC25A12, hepatocytes",−0.27
same,RNA-seq results: SLC25A13,"gene SLC25A13, hepatocytes",0.22
same,RNA-seq results: SLC25A15,"gene SLC25A15, hepatocytes",1.61
same,RNA-seq results: SLC25A19,"gene SLC25A19, hepatocytes",0.07
same,RNA-seq results: SLC25A20,"gene SLC25A20, hepatocytes",0.62
same,RNA-seq results: SLC25A29,"gene SLC25A29, hepatocytes",−0.40
same,RNA-seq results: SLC25A32,"gene SLC25A32, hepatocytes",−0.06
"O=C(N[C@H]1CN2CCC1CC2)c1cc2cccc(Cl)c2s1 [EVP-6124 (hydrochloride) (encenicline), encenicline]",Number (#) of genes having significantly changed expression,"RNA-seq, hepatocytes",141
same,significant modulation of expression of disease genes,"RNA-seq, hepatocytes",significantly (q≤0.05) modulate expression
same,"B2M expression, RNA-seq result","gene B2M, hepatocytes",0.16
same,"B9D2 expression, RNA-seq result","gene B9D2, hepatocytes",−0.55
same,"BAAT expression, RNA-seq result","gene BAAT, hepatocytes",0.61
same,"BBOX1 expression, RNA-seq result","gene BBOX1, hepatocytes",−0.14
same,"BBS10 expression, RNA-seq result","gene BBS10, hepatocytes",−0.33
same,"BCHE expression, RNA-seq result","gene BCHE, hepatocytes",−0.41
same,"BCKDHB expression, RNA-seq result","gene BCKDHB, hepatocytes",−0.31
same,"BCKDK expression, RNA-seq result","gene BCKDK, hepatocytes",−0.23
same,"BCO1 expression, RNA-seq result","gene BCO1, hepatocytes",0.24
same,"BCR expression, RNA-seq result","gene BCR, hepatocytes",−0.06
same,"BLNK expression, RNA-seq result","gene BLNK, hepatocytes",0.39
same,"BLOC1S3 expression, RNA-seq result","gene BLOC1S3, hepatocytes",0.46
same,"BMPR1A expression, RNA-seq result","gene BMPR1A, hepatocytes",0.09
same,"BRAF expression, RNA-seq result","gene BRAF, hepatocytes",0.04
same,"BSCL2 expression, RNA-seq result","gene BSCL2, hepatocytes",−0.54
same,"BTD expression, RNA-seq result","gene BTD, hepatocytes",−0.08
same,"C4A expression, RNA-seq result","gene C4A, hepatocytes",0.24
same,"C9 expression, RNA-seq result","gene C9, hepatocytes",−0.11
same,"C10orf10 expression, RNA-seq result","gene C10orf10, hepatocytes",−0.31
same,"C10orf11 expression, RNA-seq result","gene C10orf11, hepatocytes",0.1
same,"C15orf41 expression, RNA-seq result","gene C15orf41, hepatocytes",−0.2
same,"CA2 expression, RNA-seq result","gene CA2, hepatocytes",0.6
same,"CA5A expression, RNA-seq result","gene CA5A, hepatocytes",0.1
same,"CA12 expression, RNA-seq result","gene CA12, hepatocytes",0.58
same,"CAV1 expression, RNA-seq result","gene CAV1, hepatocytes",−0.81
same,"CCND1 expression, RNA-seq result","gene CCND1, hepatocytes",−0.9
same,"CD46 expression, RNA-seq result","gene CD46, hepatocytes",0.24
same,"CD81 expression, RNA-seq result","gene CD81, hepatocytes",0.27
same,"CD320 expression, RNA-seq result","gene CD320, hepatocytes",−0.04
same,"CDAN1 expression, RNA-seq result","gene CDAN1, hepatocytes",−0.04
same,"CDH1 expression, RNA-seq result","gene CDH1, hepatocytes",−0.12
same,"CEP19 expression, RNA-seq result","gene CEP19, hepatocytes",−0.06
same,"CEP83 expression, RNA-seq result","gene CEP83, hepatocytes",−0.3
same,"CEP164 expression, RNA-seq result","gene CEP164, hepatocytes",−0.12
same,"CEP290 expression, RNA-seq result","gene CEP290, hepatocytes",−0.26
same,"CFB expression, RNA-seq result","gene CFB, hepatocytes",0.1
same,"CFHR2 expression, RNA-seq result","gene CFHR2, hepatocytes",−0.08
same,"CHRM3 expression, RNA-seq result","gene CHRM3, hepatocytes",0.28
same,"CIDEC expression, RNA-seq result","gene CIDEC, hepatocytes",−0.13
same,"CLDN1 expression, RNA-seq result","gene CLDN1, hepatocytes",−0.46
same,"COG1 expression, RNA-seq result","gene COG1, hepatocytes",−0.19
"CN[C@@]1(C)[C@@H]2CC[C@@H](C2)C1(C)C.Cl [TC-5214 (R-Mecamylamine hydrochloride), R-Mecamylamine hydrochloride]",significant changes in gene expression,"RNA-seq of Table 36, FPKM≥0.5, log 2(fold-change)≥1, q-value≤0.05",not observed to cause any significant changes in gene expression
same,significant modulation of expression of disease genes,"RNA-seq, hepatocytes",significantly (q≤0.05) modulate expression of GCSH
same,log 2 fold change in expression of GCSH,"RNA-seq, hepatocytes",−1.31
"C1=C/COCc2cc(ccc2OCCN2CCCC2)Nc2nccc(n2)-c2cccc(c2)COC/1 [Pacritinib (SB1518), Pacritinib]",significant modulation of expression of disease genes,"RNA-seq, hepatocytes",significantly (q≤0.05) modulate expression
C1=C/COCc2cc(ccc2OCCN2CCCC2)Nc2nccc(n2)-c2cccc(c2)COC/1 [Pacritinib],Number (#) of genes having significantly changed expression,"RNA-seq, hepatocytes",4114
